In US9708318B2, “Bicyclic heterocycles as FGFR4 inhibitors” (Incyte Corporation, priority 2015, dated 2017):
Where two headings read alike, the source gives them in different places.

Key:
FGFR2 = FGFR2 (Homo sapiens (Human), UniProt P21802); experiment: FGFR Enzymatic Assay (FRET peptide phosphorylation), FGFR2; assay type: biochemical
Procedure: (§1) The inhibitor potency of the exemplified compounds was measured in an enzyme assay that measures peptide phosphorylation using FRET measurements to detect product formation. Inhibitors were serially diluted in DMSO and a volume of 0.5 μL was transferred to the wells of a 384-well plate.
(§2) The enzymes were purchased from Millipore or Invitrogen.
(§3) GraphPad prism3 was used to analyze the data.

FGFR3 enzyme = FGFR3 enzyme (Homo sapiens (Human), UniProt P22607); experiment: FGFR Enzymatic Assay (FRET peptide phosphorylation), FGFR3; assay type: biochemical; settings: for FGFR1/FGFR3 IC50 ratio / FGFR4/FGFR3 IC50 ratio: FGFR3 selectivity
Procedure: as §1, §3

FGFR4 = FGFR4 (Homo sapiens (Human), UniProt P22455); experiment: FGFR Enzymatic Assay (FRET peptide phosphorylation), FGFR4; assay type: biochemical
Procedure: as §1, §2, §3

FGFR1 = FGFR1 (Homo sapiens (Human), UniProt P11362); experiment: FGFR Enzymatic Assay (FRET peptide phosphorylation), FGFR1
[1] = pre-incubated for 4 hours, read-out: FGFR3 IC50
[2] = FGFR1 IC50 (nM), pre-incubated for 4 hours
[3] = read-out: FGFR1 IC50, pre-incubated for 4 hours
[4] = pre-incubated for 5 to 10 minutes

Chain of FGFR2 (P21802 22-821): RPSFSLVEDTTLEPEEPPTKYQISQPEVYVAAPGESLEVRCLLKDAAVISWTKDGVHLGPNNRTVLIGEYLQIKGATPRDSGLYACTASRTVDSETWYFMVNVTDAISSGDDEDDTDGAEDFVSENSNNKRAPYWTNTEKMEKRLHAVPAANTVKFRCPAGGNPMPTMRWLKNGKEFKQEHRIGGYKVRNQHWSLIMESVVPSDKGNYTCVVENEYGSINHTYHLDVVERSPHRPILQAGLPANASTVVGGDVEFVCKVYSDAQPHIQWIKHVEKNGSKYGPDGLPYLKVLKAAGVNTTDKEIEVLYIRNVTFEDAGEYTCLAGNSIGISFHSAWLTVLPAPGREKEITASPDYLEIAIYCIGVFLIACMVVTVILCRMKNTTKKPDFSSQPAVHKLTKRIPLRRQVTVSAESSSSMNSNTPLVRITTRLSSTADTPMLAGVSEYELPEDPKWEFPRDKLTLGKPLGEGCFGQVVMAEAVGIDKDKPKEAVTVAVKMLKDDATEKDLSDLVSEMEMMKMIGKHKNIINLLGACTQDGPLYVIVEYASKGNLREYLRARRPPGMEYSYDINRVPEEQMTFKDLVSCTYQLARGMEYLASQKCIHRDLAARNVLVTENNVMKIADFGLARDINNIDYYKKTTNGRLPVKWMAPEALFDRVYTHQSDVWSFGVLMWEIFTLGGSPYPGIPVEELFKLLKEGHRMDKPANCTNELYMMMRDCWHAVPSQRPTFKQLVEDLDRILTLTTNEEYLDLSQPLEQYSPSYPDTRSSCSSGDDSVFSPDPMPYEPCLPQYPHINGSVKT
Chain of FGFR1 (P11362 22-822): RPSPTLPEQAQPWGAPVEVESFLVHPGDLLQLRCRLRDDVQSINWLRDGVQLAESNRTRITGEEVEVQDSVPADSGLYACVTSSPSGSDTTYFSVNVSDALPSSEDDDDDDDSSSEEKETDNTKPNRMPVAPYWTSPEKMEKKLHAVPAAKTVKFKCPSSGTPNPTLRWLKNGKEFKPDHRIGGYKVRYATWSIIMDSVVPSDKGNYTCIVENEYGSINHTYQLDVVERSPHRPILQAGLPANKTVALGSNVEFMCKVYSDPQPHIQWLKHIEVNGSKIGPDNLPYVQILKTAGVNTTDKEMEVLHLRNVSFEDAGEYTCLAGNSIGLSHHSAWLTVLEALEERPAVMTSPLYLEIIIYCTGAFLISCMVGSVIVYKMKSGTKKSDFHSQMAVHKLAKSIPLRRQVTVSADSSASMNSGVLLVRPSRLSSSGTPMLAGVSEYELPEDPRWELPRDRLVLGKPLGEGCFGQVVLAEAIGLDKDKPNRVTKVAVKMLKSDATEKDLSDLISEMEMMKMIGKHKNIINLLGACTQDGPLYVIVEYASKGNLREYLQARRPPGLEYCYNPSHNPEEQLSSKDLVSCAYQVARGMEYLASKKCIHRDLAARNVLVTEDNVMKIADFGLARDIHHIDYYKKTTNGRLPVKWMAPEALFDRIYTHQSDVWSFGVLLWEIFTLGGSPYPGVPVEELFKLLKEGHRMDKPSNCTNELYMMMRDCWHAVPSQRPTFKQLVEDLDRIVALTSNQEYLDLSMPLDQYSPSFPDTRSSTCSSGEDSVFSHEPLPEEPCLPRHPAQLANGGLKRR
Chain of FGFR3 enzyme (P22607 23-806): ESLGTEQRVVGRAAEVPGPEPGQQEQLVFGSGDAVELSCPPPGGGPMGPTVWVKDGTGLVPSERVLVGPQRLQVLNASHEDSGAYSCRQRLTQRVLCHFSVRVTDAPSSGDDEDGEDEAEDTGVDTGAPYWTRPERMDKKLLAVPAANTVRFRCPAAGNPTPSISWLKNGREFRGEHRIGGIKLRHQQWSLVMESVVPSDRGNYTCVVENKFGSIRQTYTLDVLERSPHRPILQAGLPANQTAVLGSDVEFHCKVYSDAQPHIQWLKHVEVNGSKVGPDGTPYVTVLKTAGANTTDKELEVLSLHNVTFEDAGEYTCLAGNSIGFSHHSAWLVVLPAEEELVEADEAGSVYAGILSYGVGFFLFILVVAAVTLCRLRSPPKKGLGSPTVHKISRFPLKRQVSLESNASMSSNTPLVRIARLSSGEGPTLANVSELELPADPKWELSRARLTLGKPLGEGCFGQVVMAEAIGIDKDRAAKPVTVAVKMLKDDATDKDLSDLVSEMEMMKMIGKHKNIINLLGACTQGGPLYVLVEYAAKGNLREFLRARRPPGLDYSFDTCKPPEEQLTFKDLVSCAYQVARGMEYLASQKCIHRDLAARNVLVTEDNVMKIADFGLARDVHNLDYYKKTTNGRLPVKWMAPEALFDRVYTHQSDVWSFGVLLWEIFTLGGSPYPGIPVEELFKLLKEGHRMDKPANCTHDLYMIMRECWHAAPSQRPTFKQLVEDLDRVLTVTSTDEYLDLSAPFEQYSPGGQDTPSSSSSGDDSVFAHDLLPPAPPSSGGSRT
Chain of FGFR4 (P22455 22-802): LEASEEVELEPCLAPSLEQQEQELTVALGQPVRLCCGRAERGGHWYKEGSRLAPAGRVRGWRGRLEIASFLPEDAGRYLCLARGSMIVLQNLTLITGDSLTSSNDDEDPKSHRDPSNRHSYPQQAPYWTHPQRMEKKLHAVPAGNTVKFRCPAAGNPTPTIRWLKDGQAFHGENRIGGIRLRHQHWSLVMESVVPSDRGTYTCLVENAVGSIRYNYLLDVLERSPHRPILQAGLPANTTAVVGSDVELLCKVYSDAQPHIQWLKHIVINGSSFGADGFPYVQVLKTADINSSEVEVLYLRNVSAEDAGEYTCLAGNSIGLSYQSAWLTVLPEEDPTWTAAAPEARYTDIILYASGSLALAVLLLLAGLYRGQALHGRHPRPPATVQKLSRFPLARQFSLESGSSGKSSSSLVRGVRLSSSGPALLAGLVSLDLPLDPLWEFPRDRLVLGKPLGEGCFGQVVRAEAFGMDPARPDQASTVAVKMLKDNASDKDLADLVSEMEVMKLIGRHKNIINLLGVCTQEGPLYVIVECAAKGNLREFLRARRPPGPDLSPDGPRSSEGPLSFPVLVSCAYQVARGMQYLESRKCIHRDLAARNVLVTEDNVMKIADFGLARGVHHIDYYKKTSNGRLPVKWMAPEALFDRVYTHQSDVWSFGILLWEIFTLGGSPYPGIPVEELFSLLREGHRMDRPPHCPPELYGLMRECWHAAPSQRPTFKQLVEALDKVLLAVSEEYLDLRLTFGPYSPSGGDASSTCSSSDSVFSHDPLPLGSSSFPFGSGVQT

SMILES | IC50 (FGFR2; pre-incubated for 4 hours) | FGFR1/FGFR3 IC50 ratio (FGFR3 enzyme; pre-incubated for 4 hours) | FGFR4/FGFR3 IC50 ratio (FGFR3 enzyme; pre-incubated for 4 hours) | IC50 (FGFR3 enzyme; [1]) | IC50 (FGFR4; pre-incubated for 4 hours) | IC50 (FGFR1; [2]) | IC50 (FGFR3 enzyme) | IC50 (FGFR1; [3]) | IC50 (FGFR2; [4]) | IC50 (FGFR3 enzyme; pre-incubated for 5 to 10 minutes, read-out: FGFR3 IC50) | IC50 (FGFR4; [4]) | IC50 (FGFR1; FGFR1 IC50 (nM), pre-incubated for 5 to 10 minutes)
COc1cc(OC)c(F)c(N2Cc3cnc(-c4cn(C)nc4C)cc3N(Cc3ccc4c(c3)OCCO4)C2=O)c1F [Example 38, 3-(2,6-difluoro-3,5-dimethoxyphenyl)-1-((2,3-dihydrobenzo[b][1,4]dioxin-6-yl)methyl)-7-(1,3-dimethyl-1H-pyrazol-4-yl)-3,4-dihydropyrido[4,3-d]pyrimidin-2(1H)-one] | 10 to 30 nM | >5 | >5 | < 10 nM | 30 to 200 nM | 30 to 200 nM |  |  |  |  |  | 
CCn1cc(CN2C(=O)N(c3c(F)c(OC)cc(OC)c3F)Cc3cnc(-c4cn(C)nc4C)cc32)cn1 [Example 39, 3-(2,6-difluoro-3,5-dimethoxyphenyl)-7-(1,3-dimethyl-1H-pyrazol-4-yl)-1-((1-ethyl-1H-pyrazol-4-yl)methyl)-3,4-dihydropyrido[4,3-d]pyrimidin-2(1H)-one] | < 10 nM | >10 | >10 | < 10 nM | < 10 nM | 10 to 30 nM |  |  |  |  |  | 
COc1cc(OC)c(F)c(N2Cc3cnc(-c4cn(C)nc4C)cc3N(c3ccc(F)cc3)C2=O)c1F [Example 40, 3-(2,6-difluoro-3,5-dimethoxyphenyl)-7-(1,3-dimethyl-1H-pyrazol-4-yl)-1-(4-fluorophenyl)-3,4-dihydropyrido[4,3-d]pyrimidin-2(1H)-one] | < 10 nM | >10 | >10 | < 10 nM | 30 to 200 nM | 30 to 200 nM |  |  |  |  |  | 
COc1cc(OC)c(F)c(N2Cc3cnc(-c4cn(C)nc4C)cc3N(c3ccc4ncsc4c3)C2=O)c1F [Example 41, 1-(1,3-benzothiazol-6-yl)-3-(2,6-difluoro-3,5-dimethoxyphenyl)-7-(1,3-dimethyl-1H-pyrazol-4-yl)-3,4-dihydropyrido[4,3-d]pyrimidin-2(1H)-one] | 10 to 30 nM | >1 | >5 | 10 to 30 nM | 30 to 200 nM | 30 to 200 nM |  |  |  |  |  | 
COc1cc(OC)c(F)c(N2Cc3cnc(-c4cn(C)nc4C)cc3N(C3CCN(C(C)=O)CC3)C2=O)c1F [Example 43, 1-(1-acetylpiperidin-4-yl)-3-(2,6-difluoro-3,5-dimethoxyphenyl)-7-(1,3-dimethyl-1H-pyrazol-4-yl)-3,4-dihydropyrido[4,3-d]pyrimidin-2(1H)-one] | 30 to 200 nM | >10 | >5 |  | 30 to 200 nM |  | 10 to 30 nM | > 200 nM |  |  |  | 
COc1cc(OC)c(F)c(N2Cc3cnc(-c4cn(C)nc4C)cc3N(c3ccc(C#N)cc3)C2=O)c1F [Example 44, 4-(3-(2,6-difluoro-3,5-dimethoxyphenyl)-7-(1,3-dimethyl-1H-pyrazol-4-yl)-2-oxo-3,4-dihydropyrido[4,3-d]pyrimidin-1(2H)-yl)benzonitrile] | 10 to 30 nM | >10 | >10 | < 10 nM | 30 to 200 nM | 30 to 200 nM |  |  |  |  |  | 
COc1cc(OC)c(F)c(N2Cc3cnc(-c4cn(C)nc4C)cc3N(c3ccncn3)C2=O)c1F [Example 45, 3-(2,6-difluoro-3,5-dimethoxyphenyl)-7-(1,3-dimethyl-1H-pyrazol-4-yl)-1-pyrimidin-4-yl-3,4-dihydropyrido[4,3-d]pyrimidin-2(1H)-one] | 10 to 30 nM | >10 | >10 | < 10 nM | 30 to 200 nM | 30 to 200 nM |  |  |  |  |  | 
CCN1C(=O)N(c2c(F)c(OC)cc(OC)c2F)Cc2cnc(-c3cn(CCN4CCOCC4)nc3C)cc21 [Example 49, 3-(2,6-difluoro-3,5-dimethoxyphenyl)-1-ethyl-7-(3-methyl-1-(2-morpholinoethyl)-1H-pyrazol-4-yl)-3,4-dihydropyrido[4,3-d]pyrimidin-2(1H)-one] | < 10 nM | >5 | >1 | < 10 nM | 30 to 200 nM | 30 to 200 nM |  |  |  |  |  | 
CCN1C(=O)N(c2c(F)c(OC)cc(OC)c2F)Cc2cnc(-c3cn(CC(=O)N4CCOCC4)nc3C)cc21 [Example 51, 3-(2,6-difluoro-3,5-dimethoxyphenyl)-1-ethyl-7-(3-methyl-1-(2-morpholino-2-oxoethyl)-1H-pyrazol-4-yl)-3,4-dihydropyrido[4,3-d]pyrimidin-2(1H)-one] | 30 to 200 nM | >1 | >1 | 30 to 200 nM | > 200 nM |  |  | > 200 nM |  |  |  | 
CCn1cnc(-c2cc3c(cn2)CN(c2c(F)c(OC)cc(OC)c2F)C(=O)C32CC2)c1 [Example 53, 2′-(2,6-difluoro-3,5-dimethoxyphenyl)-6′-(1-ethyl-1H-imidazol-4-yl)-1′H-spiro[cyclopropane-1,4′-[2,7]naphthyridin]-3′(2′H)-one] | < 10 nM | >5 | >5 | < 10 nM | 10 to 30 nM | 10 to 30 nM |  |  |  |  |  | 
COc1cc(OC)c(F)c(N2Cc3cnc(-c4cn(C5CCS(=O)(=O)C5)nc4C)cc3C3(CC3)C2=O)c1F (stereo not shown) [Example 54, 2′-(2,6-difluoro-3,5-dimethoxyphenyl)-6′-[1-(1,1-dioxidotetrahydro-3-thienyl)-3-methyl-1H-pyrazol-4-yl]-1′,2′-dihydro-3′H-spiro[cyclopropane-1,4′-[2,7]naphthyridin]-3′-one] | < 10 nM | >5 | >1 | < 10 nM | 10 to 30 nM | 30 to 200 nM |  |  |  |  |  | 
COc1cc(OC)c(F)c(N2Cc3cnc(-c4cnn(C5(CC#N)CN(C(C)=O)C5)c4)cc3C3(CC3)C2=O)c1F [Example 56, 2-(1-acetyl-3-(4-(2′-(2,6-difluoro-3,5-dimethoxyphenyl)-3′-oxo-2′,3′-dihydro-1′H-spiro[cyclopropane-1,4′-[2,7]naphthyridine]-6′-yl)-1H-pyrazol-1-yl)azetidin-3-yl)acetonitrile] | 30 to 200 nM | >5 | >1 | 30 to 200 nM | 30 to 200 nM |  |  | > 200 nM |  |  |  | 
COc1cc(OC)c(F)c(N2Cc3cnc(-c4cn(C)nc4C)cc3N(c3ccnnc3)C2=O)c1F [Example 57, 3-(2,6-difluoro-3,5-dimethoxyphenyl)-7-(1,3-dimethyl-1H-pyrazol-4-yl)-1-(pyridazin-4-yl)-3,4-dihydropyrido[4,3-d]pyrimidin-2(1H)-one] | 30 to 200 nM | >10 | >10 | 10 to 30 nM | 30 to 200 nM |  |  | > 200 nM | 30 to 200 nM | 10 to 30 nM | > 200 nM | 30 to 200 nM
COc1cc(OC)c(F)c(N2Cc3cnc(-c4cn(C)nc4C)cc3N(c3cncnc3)C2=O)c1F [Example 61, 3-(2,6-difluoro-3,5-dimethoxyphenyl)-7-(1,3-dimethyl-1H-pyrazol-4-yl)-1-(pyrimidin-5-yl)-3,4-dihydropyrido[4,3-d]pyrimidin-2(1H)-one] | 30 to 200 nM | >10 | >5 | 10 to 30 nM | > 200 nM |  |  | > 200 nM |  |  |  | 
CNC(=O)c1ccc(CN2C(=O)N(c3c(F)c(OC)cc(OC)c3F)Cc3cnc(-c4cn(C)nc4C)cc32)cc1 [Example 62, 4-((3-(2,6-difluoro-3,5-dimethoxyphenyl)-7-(1,3-dimethyl-1H-pyrazol-4-yl)-2-oxo-3,4-dihydropyrido[4,3-d]pyrimidin-1(2H)-yl)methyl)-N-methylbenzamide] | 10 to 30 nM | >10 | >5 | < 10 nM | 30 to 200 nM | 30 to 200 nM |  |  |  |  |  | 
COc1cc(OC)c(F)c(N2Cc3cnc(-c4cn(C)nc4C)cc3N(c3ccc4ccncc4c3)C2=O)c1F [Example 63, 3-(2,6-difluoro-3,5-dimethoxyphenyl)-7-(1,3-dimethyl-1H-pyrazol-4-yl)-1-(isoquinolin-7-yl)-3,4-dihydropyrido[4,3-d]pyrimidin-2(1H)-one] | 10 to 30 nM | >10 | >5 | < 10 nM | 30 to 200 nM | 30 to 200 nM |  |  |  |  |  | 
